Consider one compound from patent US20060235061A1, “Methods of using benzothiophenone derivatives to treat cancer or inflammation” (QLT,Inc., priority 2002, published 2006).

The target in the assay is T1, Caspase-3 (Homo sapiens, UniProt P42574).
T1 construct: purchased Calbiochem
T1 sequence (P42574 29-175 limits assumed): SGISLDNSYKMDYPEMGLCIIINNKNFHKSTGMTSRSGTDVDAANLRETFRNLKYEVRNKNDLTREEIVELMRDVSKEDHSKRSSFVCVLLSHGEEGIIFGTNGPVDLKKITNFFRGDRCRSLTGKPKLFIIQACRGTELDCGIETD
T1 sequence (P42574 176-277 limits assumed): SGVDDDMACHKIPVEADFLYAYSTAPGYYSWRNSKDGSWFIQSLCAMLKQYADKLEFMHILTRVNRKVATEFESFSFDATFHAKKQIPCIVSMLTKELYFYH
Kind of assay: Caspase-3 selectivity assay (Calbiochem kit, colorimetric). In kind it is biochemical. The text has this:
This is a selectivity assay providing information about the specificity of the compounds. A cysteine residue located within the active pocket of the catalytic domain that is conserved between the […] like caspase-3 and the protein tyrosine phosphatases like PTPN12 has a thiol group within this cysteine amino acid that may interact with specific R-groups with inhibiting compounds with in vitro enzyme inhibiting activity. Also, caspase inhibition can prevent apoptosis from occurring in some cases via the caspase cascade. As the potential for cross-inhibitory activity and nonselectivity exists, the caspase-3 assay is performed on PTN12 inhibitors.
The Calbiochem caspase-3 assay kit was utilized according to package insert instructions. The assay is useful for screening for caspase-3 inhibitors measuring the protease activity of caspase-3 and other caspase-3-like activities. Cleavage is monitored colorimetrically by measuring the increase in absorbance at 405 nm. Assays were performed in a 96-well microtiter plate format.

Take `O=C1C(=CC=CC=C2Sc3ccccc3N2CCCS(=O)(=O)O)Sc2ccccc21` [3-{2-[4-(3-Oxo-3H-benzo[b]thiophen-2-ylidene)-but-2-enylidene]-benzothiazol-3-yl}-propane-1-sulfonic acid]: at 10 µM the inhibition (@ 10 μM) was 3%. The compound also had an inhibition at 100 µM (@ 100 μM) of 27%.
